Data as given in patent publication US20240409585A1, “MACROCYCLIC IMMUNOMODULATORS” (priority 2021, published 2024).
Bridge positions count the residues as written; N and C are the ends. Square brackets hold non-standard residues; d marks the D form. Peptide text beside a SMILES is read from it. * marks the point of attachment. ξ: configuration not given here. Phe(4-NO2) = N[C@@H](Cc1ccc([N+](=O)[O-])cc1)C(=O)O; Phe(4-COOH) = N[C@@H](Cc1ccc(C(=O)O)cc1)C(=O)O; Bip = N[C@@H](Cc1ccc(-c2ccccc2)cc1)C(=O)O; Phe(3-OMe) = COc1cccc(C[C@H](N)C(=O)O)c1; Phe(3-F) = N[C@@H](Cc1cccc(F)c1)C(=O)O; Phe(3-Me) = Cc1cccc(C[C@H](N)C(=O)O)c1; Bta = N[C@@H](Cc1csc2ccccc12)C(=O)O; Val(3-OH) = CC(C)(O)[C@H](N)C(=O)O; hArg = N=C(N)NCCCC[C@H](N)C(=O)O; 4Pal = N[C@@H](Cc1ccncc1)C(=O)O; Cha = N[C@@H](CC1CCCCC1)C(=O)O; Cit = NC(=O)NCCC[C@H](N)C(=O)O; Ile(3ξ) = CCC(C)[C@H](N)C(=O)O; Carboxymethyl = O=C(O)C*; NMeA = CN[C@@H](C)C(=O)O; Orn = NCCC[C@H](N)C(=O)O; Aze = O=C(O)[C@@H]1CCN1; Dab = NCC[C@H](N)C(=O)O

These compounds were tested against T1, PE-labeled human PD-L1-Ig binding to Jurkat cell line over-expressing human PD-1 (Jurkat-PD-1) (Homo sapiens, UniProt Q15116) (assay: Jurkat-PD-1 Cell Binding High-Content Screening Assay (CBA): Method 1). Conditions: Jurkat-hPD-1 cells, PE-labeled PD-L1-Ig 20 nM final; read-out: Jurkat HPDL1 PD1 IC50 (uM) (Method 1).
T1 construct: expressed in transfected cells; host or cells: Jurkat
T1 sequence (Q15116 25-288): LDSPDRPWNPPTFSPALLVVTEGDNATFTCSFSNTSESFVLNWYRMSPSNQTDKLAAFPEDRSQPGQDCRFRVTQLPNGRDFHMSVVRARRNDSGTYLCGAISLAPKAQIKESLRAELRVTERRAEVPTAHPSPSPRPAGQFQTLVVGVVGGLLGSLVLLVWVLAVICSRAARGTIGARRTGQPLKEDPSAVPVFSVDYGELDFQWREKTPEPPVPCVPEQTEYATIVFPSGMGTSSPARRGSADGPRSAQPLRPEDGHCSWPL

| SMILES | IC50 |
| --- | --- |
| CC(C)C[C@@H]1NC(=O)[C@H](CCCNC(=N)N)NC(=O)[C@H](Cc2csc3ccccc23)NC(=O)[C@H](C)N(C)C(=O)[C@H](CCCNC(=N)N)NC(=O)[C@H](Cc2ccc(-c3ccccc3)cc2)NC(=O)[C@H](C(C)C)NC(=O)[C@H](Cc2c[nH]c3ccccc23)NC(=O)[C@H](CC(=O)O)NC(=O)[C@H](Cc2ccc(O)cc2)NC(=O)[C@H](CCC(N)=O)NC(=O)CSC[C@@H](C(=O)NCC(N)=O)NC(=O)[C@H](CO)NC(=O)[C@H](C(C)C)NC1=O [Compound 1028] ({CH2CO}-QYDWV[Bip]R[NMeA][Bta]RLVSCG-NH2; thioether N-14) | 0.11 µM |
| CC(C)C[C@@H]1NC(=O)[C@H](CCN)NC(=O)[C@@H](CC(C)C)NC(=O)[C@@H]2CCN2C(=O)[C@H](C(C)C)NC(=O)[C@H](Cc2ccc(-c3ccccc3)cc2)NC(=O)[C@H](C(C)C)NC(=O)[C@H](Cc2c[nH]c3ccccc23)NC(=O)[C@H](CC(=O)O)NC(=O)[C@H](Cc2ccc(O)cc2)NC(=O)[C@H](CC(N)=O)NC(=O)CSC[C@@H](C(=O)N[C@@H](C)C(N)=O)NC(=O)[C@H]([C@@H](C)O)NC(=O)[C@H](C(C)C)NC1=O [Compound 1297] ({CH2CO}-NYDWV[Bip]V[Aze][dL][Dab]LVTCA-NH2; thioether N-14) | 0.32 µM |
| COc1cccc(C[C@@H]2NC(=O)[C@H](CC(N)=O)NC(=O)CSC[C@@H](C(=O)N[C@@H](C)C(N)=O)NC(=O)[C@H]([C@@H](C)O)NC(=O)[C@H](C(C)C)NC(=O)[C@H](CC(C)C)NC(=O)[C@H](CCN)NC(=O)[C@@H](CC(C)C)NC(=O)[C@H](C)N(C)C(=O)[C@H](CCCNC(N)=O)NC(=O)[C@H](Cc3ccc(-c4ccccc4)cc3)NC(=O)[C@H](C(C)C)NC(=O)[C@H](Cc3c[nH]c4ccccc34)NC(=O)[C@H](CC(=O)O)NC2=O)c1 [Compound 1313] ({CH2CO}-N[Phe(3-OMe)]DWV[Bip][Cit][NMeA][dL][Dab]LVTCA-NH2; thioether N-14) | 0.04 µM |
| Cc1cccc(C[C@@H]2NC(=O)[C@H](CC(=O)O)NC(=O)[C@H](Cc3ccncc3)NC(=O)[C@H](Cc3ccc(OCC(=O)O)cc3)NC(=O)CSC[C@@H](C(N)=O)NC(=O)[C@H](CO)NC(=O)[C@H](C(C)C)NC(=O)[C@H](CC(C)C)NC(=O)[C@H](CC(N)=O)NC(=O)[C@@H](CC(C)C)NC(=O)[C@H](C)N(C)C(=O)[C@H](CCCNC(N)=O)NC(=O)[C@H](Cc3ccc(-c4ccccc4)cc3)NC(=O)[C@H](CC(C)C)NC2=O)c1 [Compound 1642] ({CH2CO}-Y(Carboxymethyl)[4Pal]D[Phe(3-Me)]L[Bip][Cit][NMeA][dL]NLVSC-NH2; thioether N-14) | 0.18 µM |
| CC(C)C[C@@H]1NC(=O)[C@H](CCN)NC(=O)[C@@H](CC(C)C)NC(=O)[C@H](C)N(C)C(=O)[C@H](CCCNC(=N)N)NC(=O)[C@H](Cc2ccc(-c3ccccc3)cc2)NC(=O)[C@H](C(C)C)NC(=O)[C@H](Cc2c[nH]c3ccccc23)NC(=O)[C@H](CC(=O)O)NC(=O)[C@H](Cc2ccc(O)cc2)NC(=O)[C@H](CCCCNC(=N)N)NC(=O)CSC[C@@H](C(=O)N[C@@H](C)C(N)=O)NC(=O)[C@H]([C@@H](C)O)NC(=O)[C@H](C(C)C)NC1=O [Compound 1344] ({CH2CO}-[hArg]YDWV[Bip]R[NMeA][dL][Dab]LVTCA-NH2; thioether N-14) | 0.07 µM |
| CC(C)C[C@H]1NC(=O)[C@H](C)N(C)C(=O)[C@H](Cc2ccc(C(=O)O)cc2)NC(=O)[C@H](Cc2ccc(-c3ccccc3)cc2)NC(=O)[C@H](CCC(N)=O)NC(=O)[C@H](Cc2c[nH]c3ccccc23)NC(=O)[C@H](CC(=O)O)NC(=O)[C@H](Cc2ccc(OCC(=O)O)cc2)NC(=O)[C@H](Cc2ccc(OCC(=O)O)cc2)NC(=O)CSC[C@@H](C(=O)N[C@@H](CO)C(N)=O)NC(=O)[C@H](CCC(=O)O)NC(=O)[C@H](C(C)(C)O)NC(=O)[C@H](CC2CCCCC2)NC(=O)[C@H](CCN)NC1=O [Compound 2198] ({CH2CO}-Y(Carboxymethyl)Y(Carboxymethyl)DWQ[Bip][Phe(4-COOH)][NMeA][dL][Dab][Cha][Val(3-OH)]ECS-NH2; thioether N-14) | 0.11 µM |
| CCNC(=O)[C@H](CCN)NC(=O)[C@@H]1CSCC(=O)N[C@@H]([C@@H](C)O)C(=O)N[C@@H](Cc2ccc(OCC(=O)O)cc2)C(=O)N[C@@H](CC(=O)O)C(=O)N[C@@H](Cc2cccc(C)c2)C(=O)N[C@@H](Cc2cccc(F)c2)C(=O)N[C@@H](Cc2ccc(-c3ccccc3)cc2)C(=O)N[C@@H](Cc2ccc(OCC(=O)O)cc2)C(=O)N(C)[C@@H](C)C(=O)N[C@H](CC(C)C)C(=O)N[C@@H](CCN)C(=O)N[C@@H](CC2CCCCC2)C(=O)N[C@@H](C(C)(C)O)C(=O)N[C@@H](CO)C(=O)N1 [Compound 1844] ({CH2CO}-TY(Carboxymethyl)D[Phe(3-Me)][Phe(3-F)][Bip]Y(Carboxymethyl)[NMeA][dL][Dab][Cha][Val(3-OH)]SC[Dab]-NHEt; thioether N-14) | 0.02 µM |

Further compounds by falling IC50, results first:

| IC50 | SMILES |
| --- | --- |
| 0.14 µM | CC(C)C[C@@H]1NC(=O)CSC[C@@H](C(=O)N[C@@H](C)C(N)=O)NC(=O)[C@H](CO)NC(=O)[C@H](C(C)C)NC(=O)[C@H](CC(C)C)NC(=O)[C@H](CCCNC(=N)N)NC(=O)[C@@H](CC(C)C)NC(=O)[C@H](C)N(C)C(=O)[C@H](CCCNC(=N)N)NC(=O)[C@H](Cc2ccc(-c3ccccc3)cc2)NC(=O)[C@H](C(C)C)NC(=O)[C@H](Cc2c[nH]c3ccccc23)NC(=O)[C@H](CC(=O)O)NC(=O)[C@H](Cc2ccc(O)cc2)NC1=O [Compound 1037] ({CH2CO}-LYDWV[Bip]R[NMeA][dL]RLVSCA-NH2; thioether N-14) |
| 0.05 µM | CC(C)C[C@@H]1NC(=O)[C@H](CCN)NC(=O)[C@@H](CC(C)C)NC(=O)[C@H](C)N(C)C(=O)[C@H](CCCNC(=N)N)NC(=O)[C@H](Cc2ccc(-c3ccccc3)cc2)NC(=O)[C@H](C(C)C)NC(=O)[C@H](Cc2c[nH]c3ccccc23)NC(=O)[C@H](CC(=O)O)NC(=O)[C@H](Cc2ccc(O)cc2)NC(=O)[C@H](Cc2ccc([N+](=O)[O-])cc2)NC(=O)CSC[C@@H](C(=O)N[C@@H](C)C(N)=O)NC(=O)[C@H]([C@@H](C)O)NC(=O)[C@H](C(C)C)NC1=O [Compound 1187] ({CH2CO}-[Phe(4-NO2)]YDWV[Bip]R[NMeA][dL][Dab]LVTCA-NH2; thioether N-14) |
| 0.03 µM | CC(C)C[C@@H]1NC(=O)[C@H](CCN)NC(=O)[C@@H](CC(C)C)NC(=O)[C@H](C)N(C)C(=O)[C@H](CCCN)NC(=O)[C@H](Cc2ccc(-c3ccccc3)cc2)NC(=O)[C@H](C(C)C)NC(=O)[C@H](Cc2c[nH]c3ccccc23)NC(=O)[C@H](CC(=O)O)NC(=O)[C@H](Cc2ccc(O)cc2)NC(=O)[C@H](Cc2cnc[nH]2)NC(=O)CSC[C@@H](C(=O)N[C@@H](C)C(N)=O)NC(=O)[C@H]([C@@H](C)O)NC(=O)[C@H](C(C)C)NC1=O [Compound 1362] ({CH2CO}-HYDWV[Bip][Orn][NMeA][dL][Dab]LVTCA-NH2; thioether N-14) |
| 0.02 µM | CCC(C)[C@@H]1NC(=O)[C@H](Cc2ccc(-c3ccccc3)cc2)NC(=O)[C@H](CC(C)C)NC(=O)[C@H](Cc2c[nH]c3ccccc23)NC(=O)[C@H](CC(=O)O)NC(=O)[C@H](Cc2ccc(C(=O)O)cc2)NC(=O)[C@H](Cc2ccc(OCC(=O)O)cc2)NC(=O)CSC[C@@H](C(=O)N[C@@H](CO)C(N)=O)NC(=O)[C@H](CCC(=O)O)NC(=O)[C@H](C(C)C)NC(=O)[C@H](CC2CCCCC2)NC(=O)[C@H](CCN)NC(=O)[C@@H](CC(C)C)NC(=O)[C@H](C)N(C)C1=O (stereo partly drawn) [Compound 1930] ({CH2CO}-Y(Carboxymethyl)[Phe(4-COOH)]DWL[Bip][Ile(3ξ)][NMeA][dL][Dab][Cha]VECS-NH2; thioether N-14) |
